The supplement of paper PMC10307832

What was measured:
Test in all cases: relative viability (nuclei count vs DMSO), 5 days (fraction); higher = more cells survive
Zosuquidar + Pemetrexed = compound: O[C@@H](COc1cccc2ncccc12)CN1CCN([C@@H]2c3ccccc3[C@@H]3[C@H](c4ccccc42)C3(F)F)CC1 [Zosuquidar] + Nc1nc2[nH]cc(CCc3ccc(C(=O)N[C@@H](CCC(=O)O)C(=O)O)cc3)c2c(=O)[nH]1 [Pemetrexed] (partner 0.2 µM)
In short: (§1)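 One day after seeding in 1536-well plates, lung cancer cell lines were dosed by pin tool. Dosing was either single-drug or a fixed anchor-drug dose plus five library-drug doses (not always all listed) in √10 steps. After 5 days, nuclei were stained in one fix-and-stain step and counted on 4× images, and relative viability is the nuclei count of treated wells over that of vehicle wells, given as the median of duplicate plates.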

[1] = compound: COc1cc2nccc(Oc3ccc(NC(=O)C4(C(=O)Nc5ccc(F)cc5)CC4)cc3)c2cc1OC [Cabozantinib] + CC(=O)c1c(C)c2cnc(Nc3ccc(N4CCNCC4)cn3)nc2n(C2CCCC2)c1=O [Palbociclib] (partner 0.5 µM)
In short: as §1

Kobe2602 + Linsitinib = compound: C1=CC(=CC=C1NC(=S)NNC2=C(C=C(C=C2[N+](=O)[O-])C(F)(F)F)[N+](=O)[O-])F [Kobe2602] + C[C@]1(O)C[C@@H](c2nc(-c3ccc4ccc(-c5ccccc5)nc4c3)c3c(N)nccn32)C1 [Linsitinib] (partner 1 µM)
In short: as §1

Kobe2602 + Bortezomib = compound: C1=CC(=CC=C1NC(=S)NNC2=C(C=C(C=C2[N+](=O)[O-])C(F)(F)F)[N+](=O)[O-])F [Kobe2602] + CC(C)C[C@H](NC(=O)[C@H](Cc1ccccc1)NC(=O)c1cnccn1)B(O)O [Bortezomib] (partner 0.002 µM)
In short: as §1

Cell Line | relative viability (Zosuquidar + Pemetrexed; first compound 0.01 µM) | relative viability (Zosuquidar + Pemetrexed; first compound 0.03162 µM) | relative viability (Zosuquidar + Pemetrexed; first compound 0.1 µM) | relative viability (Zosuquidar + Pemetrexed; first compound 0.3162 µM) | relative viability (Zosuquidar + Pemetrexed; first compound 1 µM) | relative viability ([1]; first compound 0.02 µM) | relative viability ([1]; first compound 0.06325 µM) | relative viability ([1]; first compound 0.2 µM) | relative viability ([1]; first compound 0.6325 µM) | relative viability ([1]; first compound 2 µM) | relative viability (Kobe2602 + Linsitinib; first compound 0.2 µM) | relative viability (Kobe2602 + Linsitinib; first compound 0.6325 µM) | relative viability (Kobe2602 + Linsitinib; first compound 2 µM) | relative viability (Kobe2602 + Linsitinib; first compound 6.325 µM) | relative viability (Kobe2602 + Linsitinib; first compound 20 µM) | relative viability (Kobe2602 + Bortezomib; first compound 0.2 µM) | relative viability (Kobe2602 + Bortezomib; first compound 0.6325 µM) | relative viability (Kobe2602 + Bortezomib; first compound 2 µM) | relative viability (Kobe2602 + Bortezomib; first compound 6.325 µM) | relative viability (Kobe2602 + Bortezomib; first compound 20 µM)
LCLC-103H | 0.495 | 0.489 | 0.453 | 0.46 | 0.46 | 0.492 | 0.463 | 0.464 | 0.434 | 0.435 | 1.05 | 1.1 | 1.1 | 1.09 | 0.984 | 1.15 | 1.11 | 1.04 | 1.13 | 1.01
NCI-H647 | 0.188 | 0.177 | 0.178 | 0.168 | 0.139 | 0.47 | 0.456 | 0.406 | 0.335 | 0.358 | 1.12 | 1.45 | 1.25 | 0.864 | 1.19 | 0.911 | 1.22 | 0.889 | 0.882 | 0.938
NCI-H1792 | 0.746 | 0.705 | 0.474 | 1.04 | 0.933 | – | 0.707 | 0.668 | 0.679 | 0.579 | 0.563 | 0.53 | 0.613 | 0.521 | 0.558 | 0.965 | 0.901 | 1.09 | 0.985 | 0.986
NCI-H1755 | 0.448 | 0.428 | 0.426 | 0.426 | 0.452 | 0.471 | 0.454 | 0.461 | 0.43 | 0.446 | 0.949 | 0.898 | 0.986 | 0.977 | 0.982 | 1.04 | 0.971 | 0.895 | 0.96 | 1
EPLC-272H | 0.376 | 0.317 | 0.357 | 0.404 | 0.363 | 0.3 | 0.317 | 0.277 | 0.34 | 0.305 | 1.2 | 1.2 | 1.23 | 1.36 | 0.447 | 1.03 | 1.01 | 0.778 | 0.866 | 0.873
NCI-H2228 | 0.359 | 0.302 | 0.315 | 0.324 | 0.361 | 0.588 | 1.08 | 0.802 | 0.941 | 0.837 | 0.576 | 0.733 | 0.809 | 0.756 | 0.598 | 1.11 | 0.849 | 0.953 | 0.947 | 1.12
